Target: T1, human GPR39 receptor (Homo sapiens, UniProt O43194)
T1 construct: PC3 Cells, Expressing the Endogenous Human GPR39 Receptor; endogenous in cells; host or cells: PC3 (human prostate adenocarcinoma) cells
T1 sequence (O43194 1-453): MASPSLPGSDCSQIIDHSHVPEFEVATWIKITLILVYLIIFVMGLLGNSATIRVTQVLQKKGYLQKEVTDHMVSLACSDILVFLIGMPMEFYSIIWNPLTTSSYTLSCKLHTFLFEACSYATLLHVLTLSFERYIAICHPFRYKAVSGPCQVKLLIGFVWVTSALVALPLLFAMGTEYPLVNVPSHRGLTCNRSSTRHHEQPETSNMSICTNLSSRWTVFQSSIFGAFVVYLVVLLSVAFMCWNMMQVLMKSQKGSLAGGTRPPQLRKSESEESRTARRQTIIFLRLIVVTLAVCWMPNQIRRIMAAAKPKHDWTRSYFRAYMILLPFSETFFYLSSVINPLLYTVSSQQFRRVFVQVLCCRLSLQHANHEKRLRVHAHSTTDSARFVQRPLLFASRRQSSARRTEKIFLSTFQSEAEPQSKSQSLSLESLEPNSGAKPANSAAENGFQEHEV
Assay: Intracellular calcium response (FLIPR, Calcium-6) in PC3 cells, antagonism of agonist C3 (TC-G 1008) at EC90
Assay type: cell-based
Settings: functional pKi (-Log10Ki) by modified Cheng-Prusoff from IC50; PC3 cells endogenously expressing human GPR39; 30 μM ZnCl2; agonist C3 (TC-G 1008) at EC90 1.5 μM; read-out: fpKi activity
Procedure: Measurement of Intracellular Calcium Response in PC3 Cells, Expressing the Endogenous Human GPR39 Receptor
Human prostate adenocarcinoma (PC3) cells endogenously expressing human GPR39 receptor were seeded into black walls clear-base 384-well plates at a density of 7,500 cells per well in DMEM (Low Glucose) supplemented with 10% heat-inactivated foetal bovine serum and 1% of Pen/Strep and grown overnight at 37° C., 5% CO2. After washing with assay buffer (20 mM HEPES, 137 mM NaCl, 5.4 mM KCl, 10 mM glucose, 0.8 mM MgSO4, 1.3 mM CaCl2), 0.3 mM Na2HPO4, 0.4 mM KH2PO4 4.2 mM NaHCO3, pH 7.4), cells were incubated with Calcium-6 probe (Molecular Devices) at 37° C. for 2 h and then equilibrated at RT for 30 minutes on metal block. The fluorescence was measured in real time by Fluorometric Imaging Plate Reader (FLIPR TETRA, Molecular Devices) (excitation wavelength at 470-495 nm, emission wavelength at 515-575 nm). Compounds of invention were serially diluted in neat DMSO at 1000 fold concentrations and plated into 384-well plates and then 200-fold diluted in assay buffer containing 150 μM ZnCl2 (30 μM final concentration) and 1.1% DMSO (0.32% final concentration). A dual addition FLIPR protocol was used which included a first addition of compounds 200-fold diluted in Assay Buffer containing 150 μM ZnCl2 and 1.1% DMSO and then after 10 minutes a second addition of a submaximal concentration of the hGPR39 receptor agonist, C3 (Tocris, TC-G 1008) at EC90 (concentration producing 90% of the maximal response) value of 1.5 μM. Fluorescence was monitored throughout the run assay. The peak of Ca2+ stimulation (baseline subtracted) was expressed as percentage of the maximal inhibition of the EC90 C3 response and was plotted versus the concentration of test compound. Curve fitting and IC50 estimations are carried out using a four-parameter logistic model using XLfit Software. […] An fpKi less than 5.2 is reported as “+/−”. An fpKi ranging from 5.2 to 5.9 is reported as “+”. An fpKi from 6.0 to 6.5 is reported as “++”. An fpKi from 6.6 to 7.2 is reported as “+++”. An fpKi equal to or greater than 7.3 is reported as “++++”.

SMILES | Ki
O=C(Nc1ccc(C(=O)N2C3CCC2COC3)c(N2CCCC2)c1)C1CC1 [Example 7, N-[4-(3-oxa-8-azabicyclo[3.2.1]octane-8-carbonyl)-3-pyrrolidin-1-ylphenyl]cyclopropanecarboxamide] | 1260 to 6310 nM
O=C(Nc1ccc(C(=O)N2CC3CC(C2)O3)c(N2CCCC2)c1)C1CC1 [Example 8, N-[4-(6-oxa-3-azabicyclo[3.1.1]heptane-3-carbonyl)-3-pyrrolidin-1-ylphenyl]cyclopropanecarboxamide] | 1260 to 6310 nM
O=C(Nc1ccc(C(=O)N2CC3CC(C3)C2)c(N2CCCC2)c1)C1CC1 [Example 9, N-[4-(3-azabicyclo[3.1.1]heptane-3-carbonyl)-3-pyrrolidin-1-ylphenyl]cyclopropanecarboxamide] | 316 to 1000 nM
CN1CCN(C(=O)c2ccc(Nc3nc4ccccn4n3)cc2N2CCCC2)C(c2ccccc2)C1 (centres unmarked) [Example 19, (4-methyl-2-phenylpiperazin-1-yl)-[2-pyrrolidin-1-yl-4-([1,2,4]triazolo[1,5-a]pyridin-2-ylamino)phenyl]methanone] | > 6310 nM
Cc1nnc(Nc2ccc(C(=O)N3CCN(C)CC3c3ccccc3)c(N3CCCC3)c2)s1 (centres unmarked) [Example 20, (4-methyl-2-phenylpiperazin-1-yl)-[4-[(5-methyl-1,3,4-thiadiazol-2-yl)amino]-2-pyrrolidin-1-ylphenyl]methanone] | 1260 to 6310 nM
Cn1ccc(-c2cc(NC(=O)C3CC3)ccc2C(=O)N2CCC(F)(F)CC2)n1 [Example 22, N-[4-(4,4-difluoropiperidine-1-carbonyl)-3-(1-methylpyrazol-3-yl)phenyl]cyclopropanecarboxamide] | 63.1 to 251 nM
O=C(Nc1ccc(C(=O)N2CCS(=O)(=O)CC2)c(-c2cnc(C(F)(F)F)s2)c1)C1CC1 [Example 27, N-[4-(1,1-dioxo-1,4-thiazinane-4-carbonyl)-3-[2-(trifluoromethyl)-1,3-thiazol-5-yl]phenyl]cyclopropanecarboxamide] | 1260 to 6310 nM
CC(C)n1ccc(-c2cc(NC(=O)C3CC3)ccc2C(=O)N2CCS(=O)(=O)CC2)n1 [Example 28, N-[4-(1,1-dioxo-1,4-thiazinane-4-carbonyl)-3-(1-propan-2-ylpyrazol-3-yl)phenyl]cyclopropanecarboxamide] | ≤ 50.1 nM
O=C(Nc1ccc(C(=O)N2CCS(=O)(=O)CC2)c(-c2ccc(C(F)(F)F)s2)c1)C1CC1 [Example 29, N-[4-(1,1-dioxo-1,4-thiazinane-4-carbonyl)-3-[5-(trifluoromethyl)thiophen-2-yl]phenyl]cyclopropanecarboxamide] | 316 to 1000 nM
O=C(Nc1ccc(C(=O)N2CCS(=O)(=O)CC2)c(-c2cccc(C(F)(F)F)n2)c1)C1CC1 [Example 37, N-[4-(1,1-dioxo-1,4-thiazinane-4-carbonyl)-3-[6-(trifluoromethyl)pyridin-2-yl]phenyl]cyclopropanecarboxamide] | ≤ 50.1 nM
O=C(Nc1ccc(C(=O)N2CCC3(CC2)COC3)c(-c2cccc(C(F)(F)F)n2)c1)C1CC1 [Example 38, N-[4-(2-oxa-7-azaspiro[3.5]nonane-7-carbonyl)-3-[6-(trifluoromethyl)pyridin-2-yl]phenyl]cyclopropanecarboxamide] | ≤ 50.1 nM
COC1(C)CCN(C(=O)c2ccc(-c3nnc(C)[nH]3)cc2-c2ccn(C(C)C)n2)CC1 [Example 39, [2-(1-isopropylpyrazol-3-yl)-4-(5-methyl-4H-1,2,4-triazol-3-yl)phenyl]-(4-methoxy-4-methyl-1-piperidyl)methanone] | ≤ 50.1 nM
Cc1nnc(-c2ccc(C(=O)N3CCC(C(F)(F)F)CC3)c(-c3ccn(CC(C)C)n3)c2)[nH]1 [Example 45, [2-[1-(2-methylpropyl)pyrazol-3-yl]-4-(5-methyl-4H-1,2,4-triazol-3-yl)phenyl]-[4-(trifluoromethyl)piperidin-1-yl]methanone] | ≤ 50.1 nM
Cc1nnc(-c2ccc(C(=O)N3CCC(C(F)(F)F)CC3)c(-c3ccn(C4CCC4)n3)c2)[nH]1 [Example 47, [2-(1-cyclobutylpyrazol-3-yl)-4-(5-methyl-4H-1,2,4-triazol-3-yl)phenyl]-[4-(trifluoromethyl)piperidin-1-yl]methanone] | ≤ 50.1 nM
Cc1nnc(-c2ccc(C(=O)N3CCC(C(F)(F)F)CC3)c(-c3ccn(C(C)C)n3)c2)[nH]1 [Example 48, [4-(5-methyl-4H-1,2,4-triazol-3-yl)-2-(1-propan-2-ylpyrazol-3-yl)phenyl]-[4-(trifluoromethyl)piperidin-1-yl]methanone] | ≤ 50.1 nM

Further lines, results first:

Ki | SMILES
> 6310 nM | CN1CCN(C(=O)c2ccc(-c3cn[nH]c3)cc2N2CCCC2)C(c2ccccc2)C1 (centres unmarked) [Example 21, (4-methyl-2-phenylpiperazin-1-yl)-[4-(1H-pyrazol-4-yl)-2-pyrrolidin-1-ylphenyl]methanone]
≤ 50.1 nM | CC(C)n1ccc(-c2cc(NC(=O)C3CC3)ccc2C(=O)N2CCC(F)(F)CC2)n1 [Example 23, N-[4-(4,4-difluoropiperidine-1-carbonyl)-3-(1-propan-2-ylpyrazol-3-yl)phenyl]cyclopropanecarboxamide]
≤ 50.1 nM | CCCN1CCN(C(=O)c2ccc(NC(=O)C3CC3)cc2-c2ccn(C(C)C)n2)CC1 [Example 24, N-[3-(1-propan-2-ylpyrazol-3-yl)-4-(4-propylpiperazine-1-carbonyl)phenyl]cyclopropanecarboxamide]
316 to 1000 nM | Cc1ccc(-c2cc(NC(=O)C3CC3)ccc2C(=O)N2CCS(=O)(=O)CC2)s1 [Example 25, N-[4-(1,1-dioxo-1,4-thiazinane-4-carbonyl)-3-(5-methylthiophen-2-yl)phenyl]cyclopropanecarboxamide]
1260 to 6310 nM | N#Cc1ccc(-c2cc(NC(=O)C3CC3)ccc2C(=O)N2CCS(=O)(=O)CC2)s1 [Example 26, N-[3-(5-cyanothiophen-2-yl)-4-(1,1-dioxo-1,4-thiazinane-4-carbonyl)phenyl]cyclopropanecarboxamide]
63.1 to 251 nM | Cc1nnc(-c2ccc(C(=O)N3CCC(C(C)(C)C)CC3)c(-c3ccn(C(C)C)n3)c2)[nH]1 [Example 40, (4-tert-butyl-1-piperidyl)-[2-(1-isopropylpyrazol-3-yl)-4-(5-methyl-4H-1,2,4-triazol-3-yl)phenyl]methanone]
≤ 50.1 nM | Cc1nnc(-c2ccc(C(=O)N3CCC4(CCO4)CC3)c(-c3ccn(C(C)C)n3)c2)[nH]1 [Example 41, [2-(1-isopropylpyrazol-3-yl)-4-(5-methyl-4H-1,2,4-triazol-3-yl)phenyl]-(1-oxa-7-azaspiro[3.5]nonan-7-yl)methanone]
≤ 50.1 nM | CCOC1CCN(C(=O)c2ccc(-c3nnc(C)[nH]3)cc2-c2ccn(C(C)C)n2)CC1 [Example 42, (4-ethoxy-1-piperidyl)-[2-(1-isopropylpyrazol-3-yl)-4-(5-methyl-4H-1,2,4-triazol-3-yl)phenyl]methanone]
≤ 50.1 nM | Cc1nnc(-c2ccc(C(=O)N3CCC(C)(F)CC3)c(-c3ccn(C(C)C)n3)c2)[nH]1 [Example 43, (4-fluoro-4-methylpiperidin-1-yl)-[4-(5-methyl-4H-1,2,4-triazol-3-yl)-2-(1-propan-2-ylpyrazol-3-yl)phenyl]methanone]
1260 to 6310 nM | CCn1nccc1-c1cc(-c2nnc(C)[nH]2)ccc1C(=O)N1CCC(F)(F)CC1 [Example 44, (4,4-difluoropiperidin-1-yl)-[2-(2-ethylpyrazol-3-yl)-4-(5-methyl-4H-1,2,4-triazol-3-yl)phenyl]methanone]
63.1 to 251 nM | Cc1nnc(-c2ccc(C(=O)N3CCC(F)(F)CC3)c(-c3ccn(C)n3)c2)[nH]1 [Example 46, (4,4-difluoropiperidin-1-yl)-[2-(1-methylpyrazol-3-yl)-4-(5-methyl-4H-1,2,4-triazol-3-yl)phenyl]methanone]

Source: US20250333405A1, “ANTAGONISTS OF GPR39 PROTEIN” (VASOCARDEA, INC., priority 2024, published 2025)
